The data set is described as follows: Solubility of oligomers in organic solvents. The class given is physicochemical. From the text:
Oligomers such as the homologues H, K, L, M, N, and O are synthesized by treating acid chloride with the corresponding amines.
From H to N, all the amide-H resonances appear at positions >9.2 ppm. […] That one amide-H resonance, appears at δ8.86.

In the case of `COc1ccccc1NC(=O)c1cc(NC(=O)c2cc([N+](=O)[O-])c(OC)cc2OC)c(OC)cc1OC` [K], the “solubility in DMF” value (DMF) is “increasingly insoluble”. The “behaviour of the freshly prepared compound in DMF on standing” value (freshly prepared, added to DMF, standing at room temperature, precipitation faster at elevated temperatures) was “gradually precipitate out”.
